{
  "source": "patent US4085224A",
  "about": "“Method of increasing feed utilization” (Eli Lilly and Company, priority 1976, dated 1978)",
  "key": {"[1]": {"system": "E. necatrix and E. tenella", "experiment": "anticoccidial activity in chicks, mixed infection (Table X)", "type": "in vivo", "details": "0.005 percent in feed", "excerpt": "(§1) ^1 Four replicates, 5 broiler cockerels each."}, "[2]": {"system": "E. tenella, E. necatrix, E. maxima, E. brunetti, E. acervulina, and E. mivati", "experiment": "anticoccidial activity in chicks, mixed infection (Table X)", "type": "in vivo", "details": "0.01 percent in feed", "excerpt": "as §1"}, "rumen fluid": {"system": "rumen fluid", "experiment": "in vitro rumen fluid volatile fatty acid production", "parameters": "species or system steer", "details": "1 ppm in rumen fluid, 16 hours at 38° C.", "excerpt": "As discussed hereinabove, efficiency of carbohydrate utilization in ruminants is increased by treatments which stimulate the amimal's rumen flora to produce propionate compounds rather than acetate or butyrate compounds. The efficiency of feed use can be monitored by observing the production and concentration of propionate compounds in the rumen, using the following methods:\nRemen fluid is obtained from a steer with a surgically-installed fistula opening into the rumen. The steer is maintained on a high-grain ration. A sample of rumen fluid is strained through four layers of cheesecloth, and the filtrate is collected. The particulate matter retained by the cheesecloth is resuspended in enough physiological buffer to return it to the original volume of the rumen fluid, and this suspension is strained again. The buffer used has the following composition:\nThe two filtrates are combined and allowed to stand until particulate matter separates to the top. The clear layer is separated, diluted with the same buffer (1:1) and then adjusted to between pH 6.8 to 7.0.\nThe diluted rumen fluid (10 ml) is placed in a 25-ml flask with 40 mg of the above-described feed, an additional 1 mg of soybean protein, and the compound to be tested. Four replicate flasks are used per treatment. Two sets of four control flasks each are also employed. A zero-time control and an incubated 16-hour control are used. All test flasks are incubated for 16 hours at 38° C. […] The samples are allowed to settle, and the supernatants are analyzed by gas chromatography for propionate, acetate, and butyrate compounds."}},
  "data": [
    {"smiles": "CCC(C(=O)O)C1OC(C(C)C(O)C(C)C(=O)C(CC)C2OC3(C=CC(O)C4(CCC(C)(C5CCC(O)(CC)C(C)O5)O4)O3)C(C)CC2C)C(C)CC1C", "note": "(stereo not shown) [A-28086 factor A]", "values": [
      {"measurement": "Cecal Lesions, Percent Reduction", "setting": "[1]", "value": 50, "unit": "%"},
      {"measurement": "Intestinal Lesions, Percent Reduction", "setting": "[1]", "value": 59, "unit": "%"},
      {"measurement": "Intestinal Lesions, Average", "setting": "[1]; infected controls 1.7", "value": 0.7},
      {"measurement": "Cecal Lesions, Average", "setting": "[1]; infected controls 3.5", "value": 1.75},
      {"measurement": "Percent Mortality", "setting": "[1]; infected controls 20", "value": 0, "unit": "%"},
      {"measurement": "Percent Weight Gain", "setting": "[1]; infected controls 52", "value": 94, "unit": "%"},
      {"measurement": "Cecal Lesions, Percent Reduction", "setting": "[2]", "value": 73, "unit": "%"},
      {"measurement": "Intestinal Lesions, Percent Reduction", "setting": "[2]", "value": 79, "unit": "%"},
      {"measurement": "Intestinal Lesions, Average", "setting": "[2]; infected controls 1.9", "value": 0.4},
      {"measurement": "Cecal Lesions, Average", "setting": "[2]; infected controls 3.3", "value": 0.9},
      {"measurement": "Percent Weight Gain", "setting": "[2]; infected controls 12", "value": 91, "unit": "%"},
      {"measurement": "Percent Mortality", "setting": "[2]; infected controls 50", "value": 0, "unit": "%"},
      {"measurement": "Ratio of Treated to Control, Molar % acetate", "setting": "rumen fluid", "value": 0.94},
      {"measurement": "Ratio of Treated to Control, Molar % butyrate", "setting": "rumen fluid", "value": 0.87},
      {"measurement": "Ratio of Treated to Control, Molar % propionate", "setting": "rumen fluid", "value": 1.34},
      {"measurement": "Ratio of Treated to Control, Total VFA mM/l", "setting": "rumen fluid", "value": 1.26}
    ]}
  ]
}
